The nature of data set [1]: Pharmacokinetic evaluation in mice. Type of data set: in vivo, C57BL/6 or C57 mice. The note with it: male, C57BL/6, mouse, plasma, intravenous injection 2 mg/kg, fasted, read-out: Apparent Volume of Distribution. From the text: C57BL/6 or C57 male mice were selected as the test animals for this study. The LC/MS/MS method was employed to quantitatively determine the plasma drug concentrations at various time points after intravenous injection or intragastric administration of the test compound, aiming to evaluate the pharmacokinetic characteristics of the compound of the present disclosure in mice.
C57BL/6 or C57 mice (male, 20 to 30 g, 7 to 10 weeks old, Beijing Vital River).
A clear solution of the test compound was injected intravenously into the tail vein of C57BL/6 mice (fasted overnight) (vehicle: 10% DMSO/10% solutol/80% H2O), or administered intragastrically to C57 mice (fed). […] The mixture was thoroughly vortexed and mixed, and centrifuged at 6000 g for 3 minutes at 2 to 8° C. […] The mixture was thoroughly vortexed and mixed, and centrifuged at 6000 g for 3 minutes at 2 to 8° C. Plasma drug concentrations were determined by the LC-MS/MS method, and relevant pharmacokinetic parameters were calculated using Phoenix WinNonlin 8.2.0 pharmacokinetic software with non-compartmental model linear-log trapezoidal method.

Data set [2] in a line: Pharmacokinetic evaluation in beagle dogs. To be noted: male, dog, plasma, intravenous injection 0.5 mg/kg, fed. Type of data set: in vivo. As to the method: Male beagle dogs were selected as the experimental animals in this study.
Beagle dogs (male, 7 to 10 kg, Beijing Mars Biotechnology Co., Ltd.).
A clear solution of the test compound was slowly injected intravenously into beagle dogs (fed) via the peripheral vein (vehicle: […]/10% Solutol/85% H2O), or administered intragastrically to beagle dogs (fed). For intravenous administration, 0.5 mL of blood was collected from the peripheral vein at 0.083, 0.25, 0.5, 1, 2, 4, 6, 8, and 24 h after administration, placed in EDTA-2K anticoagulant tubes, and centrifuged at 3200 g for 10 minutes at 2 to 8° C. to separate the supernatant. For intragastric administration, 0.5 mL of blood was collected from the peripheral vein at 0.083, 0.25, 0.5, 1, 2, 4, 6, 8, and 24 h after administration, placed in EDTA-2K anticoagulant tubes, and centrifuged at 3200 g for 10 minutes at 2 to 8° C. to separate the supernatant. Plasma drug concentrations were determined by the LC-MS/MS method, and relevant pharmacokinetic parameters were calculated using Phoenix WinNonlin 6.3 pharmacokinetic software with non-compartmental model linear-log trapezoidal method.

Counter-ions that a name gives are not always drawn.

As usually defined, the clearance is the volume of plasma or blood freed of the substance per unit of time. Read a low clearance as a low capacity for elimination. In general, half-life refers to the time in which the quantity being followed falls by half. Turning to `O=C1CCC(c2noc3ccc4c(NC(=O)CN5CCN(C[C@H]6CC[C@H](n7cc(NC(=O)c8coc(-c9ccnc(NCC%10CC%10)c9)n8)c(C(F)F)n7)CC6)CC5)cccc4c23)C(=O)N1` (stereo partly drawn) [Hydrochloride of Compound of Formula (I)], the Vd in data set [1] was 1.6 L/kg. Moreover, the clearance in data set [2] turned out to be 21.3 mL/min/kg. In addition, the half-life in data set [2] (read-out: Elimination Half-Life (converted)) was 5.03 h.

The values are drawn from patent publication US20260265240A1, “PREPARATION METHOD FOR SALT FORM AND CRYSTAL FORM OF 2,6-PIPERIDINEDIONE COMPOUND AND USE THEREOF” (ZHANGZHOU PIEN TZE HUANG PHARMACEUTICAL CO., LTD., priority 2023, published 2026).
